Assay results published in publication PMC7400437, “Synthesis and Evaluation of the Antibacterial Activities of 13-Substituted Berberine Derivatives” (Antibiotics, 2020).
Converted amounts (≈) assume the structure as drawn.

Key:
B. subtilis [1] = experiment: Macromolecule synthesis inhibition assay by fluorescent microscopy (morphological changes); conditions: 4 × MIC, 2 h, 37 °C; for Observed Morphology: DNA, B. subtilis: DAPI
V. alginolyticus = experiment: as above; conditions: 4 × MIC, 2 h, 37 °C; for Observed Morphology: DNA, V. alginolyticus: DAPI; for Observed Morphology: cell membrane, V. alginolyticus: FM4-64FX
C. albicans = experiment: MIC, antifungal activity assay; format: cell-based, Candida albicans (DSM 10697); conditions: Candida albicans; Table 1 first screening; 35 °C, 24 h; read-out: Minimal Inhibitory Concentration (MIC) C. albicans
S. aureus = experiment: MIC, antimicrobial activity assay; format: cell-based, Staphylococcus aureus (ATCC 6538P); conditions: Staphylococcus aureus; Table 1 first screening; read-out: Minimal Inhibitory Concentration (MIC) S. aureus
B. subtilis [2] = experiment: MIC, antimicrobial activity assay; format: cell-based, Bacillus subtilis (ATCC 6633); conditions: Bacillus subtilis; Table 1 first screening; read-out: Minimal Inhibitory Concentration (MIC) B. subtilis
E. coli = experiment: MIC, antimicrobial activity assay; format: cell-based, Escherichia coli (ATCC 8739); conditions: Escherichia coli; Table 1 first screening; read-out: Minimal Inhibitory Concentration (MIC) E. coli
P. aeruginosa = experiment: MIC, antimicrobial activity assay; format: cell-based, Pseudomonas aeruginosa (ATCC 9027); conditions: Pseudomonas aeruginosa; Table 1 first screening; read-out: Minimal Inhibitory Concentration (MIC) P. aeruginosa
M. smegmatis = experiment: microbe, parasite or virus in culture; format: cell-based, Mycobacterium smegmatis (mc2155, ATCC 700084); conditions: Mycolicibacterium smegmatis, 72 h, read-out: Minimal Inhibitory Concentration (MIC) M. smegmatis

| Compound | Observed Morphology: cell elongation/enlargement, B. subtilis (B. subtilis [1]) | Observed Morphology: cells connected, B. subtilis (B. subtilis [1]) | Observed Morphology: DNA, B. subtilis (B. subtilis [1]) | Observed Morphology: cell elongation, V. alginolyticus (V. alginolyticus) | Observed Morphology: cells connected, V. alginolyticus (V. alginolyticus) | Observed Morphology: DNA, V. alginolyticus (V. alginolyticus) | Observed Morphology: cell membrane, V. alginolyticus (V. alginolyticus) | MIC (C. albicans) | MIC (S. aureus) | MIC (B. subtilis [2]) | MIC (E. coli) | MIC (P. aeruginosa) | MIC (M. smegmatis) | Observed Morphology: cell membrane, B. subtilis (B. subtilis [1]; FM4-64FX) |
| --- | --- | --- | --- | --- | --- | --- | --- | --- | --- | --- | --- | --- | --- | --- |
| CC1(C)S[C@@H]2[C@H](NC(=O)[C@H](N)c3ccc(O)cc3)C(=O)N2[C@H]1C(=O)O [Amoxicillin] | 1.5 times compared to control | 2–4 cells connected | 2 condensed DNA in each cell | 1–3 times compared to control | 1–2 cells connected | Thick condensed and decondensed DNA spanning the cell | Cell membrane thickening | – | – | – | – | – | – | – |
| C[C@@H]1[C@H](O)[C@@H](C)/C=C/C=C/C=C/C=C/C=C/C=C/C=C/[C@H](O[C@@H]2O[C@H](C)[C@@H](O)[C@H](N)[C@@H]2O)C[C@@H]2O[C@](O)(C[C@@H](O)C[C@@H](O)[C@H](O)CC[C@@H](O)C[C@@H](O)CC(=O)O[C@H]1C)C[C@H](O)[C@H]2C(=O)O [Amphotericin B, reference compound] | – | – | – | – | – | – | – | 1.1 µM (≈ 1.02 µg/mL) | – | – | – | – | – | – |
| COc1ccc2c(c1OC)CN1CCc3cc4c(cc3C1=C2)OCO4 [Compound 1, Dihydroberberine] | – | – | – | – | – | – | – | 100 µM (≈ 33.7 µg/mL) | 100 µM (≈ 33.7 µg/mL) | > 100 µM | > 100 µM | > 100 µM | > 100 µM | – |
| COc1ccc2c(c1OC)C(CC(C)=O)N1CCc3cc4c(cc3C1=C2)OCO4 (centres unmarked) [Compound 3, 8-acetonyl dihydroberberine] | – | – | – | – | – | – | – | 100 µM (≈ 39.3 µg/mL) | 100 µM (≈ 39.3 µg/mL) | > 100 µM | > 100 µM | > 100 µM | 100 µM (≈ 39.3 µg/mL) | – |
| COc1ccc2c(CC(=O)O)c3[n+](cc2c1OC)CCc1cc2c(cc1-3)OCO2 [Compound 5, 13-(Acetic Acid) Berberine] | – | – | – | – | – | – | – | > 100 µM | 100 µM | 100 µM | > 100 µM | > 100 µM | 50 µM | – |
| COc1ccc2c(Cc3ccc(C#N)cc3)c3[n+](cc2c1OC)CCc1cc2c(cc1-3)OCO2 [Compound 7, 13-(4-Cyanobenzyl)Berberine] | – | – | – | – | – | – | – | 100 µM | 100 µM | > 100 µM | > 100 µM | > 100 µM | 100 µM | – |
| COc1ccc2c(Cc3ccc(S(N)(=O)=O)cc3)c3[n+](cc2c1OC)CCc1cc2c(cc1-3)OCO2 [Compound 10, 13-(4-Sulfamoylbenzyl)Berberine] | – | – | – | – | – | – | – | > 100 µM | > 100 µM | > 100 µM | > 100 µM | > 100 µM | > 100 µM | – |
| COc1ccc2c(Cc3ccc(C=O)cc3)c3[n+](cc2c1OC)CCc1cc2c(cc1-3)OCO2 [Compound 12, 13-(4-Formylbenzyl)Berberine] | – | – | – | – | – | – | – | > 100 µM | 100 µM | > 100 µM | > 100 µM | > 100 µM | 100 µM | – |
| COc1ccc2c(Cc3ccc(C=NO)cc3)c3[n+](cc2c1OC)CCc1cc2c(cc1-3)OCO2 [Compound 21, N-({4-[(Berberin-13-yl)methyl]phenyl}methylidene)hydroxylamine] | – | – | – | – | – | – | – | > 100 µM | 50 µM | 100 µM | > 100 µM | > 100 µM | 50 µM | – |
| COc1ccc2c(Cc3ccc(/C=C/C(=O)O)cc3)c3[n+](cc2c1OC)CCc1cc2c(cc1-3)OCO2 [Compound 22, (2E)-3-{4-[(Berberin-13-yl)methyl]phenyl}prop-2-enoic Acid] | – | – | – | – | – | – | – | > 100 µM | > 100 µM | > 100 µM | > 100 µM | > 100 µM | > 100 µM | – |
| CO/N=C1\CN(c2nc3c(cc2F)c(=O)c(C(=O)O)cn3C2CC2)CC1CN (centres unmarked) [Gemifloxacin, reference compound] | – | Single cells | Decondensed DNA | 3–9 times compared to control | 1–2 cells connected | Thick condensed DNA spanning the cell | – | – | 0.06 µM (≈ 0.0234 µg/mL) | 0.02 µM (≈ 0.00779 µg/mL) | 0.06 µM (≈ 0.0234 µg/mL) | 0.25 µM (≈ 0.0973 µg/mL) | 2 µM (≈ 0.779 µg/mL) | – |
| CO[C@H]1/C=C/O[C@@]2(C)Oc3c(C)c(O)c4c(O)c(c(/C=N/N5CCN(C)CC5)c(O)c4c3C2=O)NC(=O)/C(C)=C\C=C\[C@H](C)[C@H](O)[C@@H](C)[C@@H](O)[C@@H](C)[C@H](OC(C)=O)[C@@H]1C [Rifampicin] | 2.5 times compared to control | 2–3 cells connected | DNA condensed in one thick filament crossing the cells some with dot like shape | 2.5 times compared to control | 1–2 cells connected | Condensed DNA spanning the cell | Cell membrane pigmentation | – | – | – | – | – | – | Cell membrane thickening |
| CN(C)[C@@H]1C(O)=C(C(N)=O)C(=O)[C@@]2(O)C(O)=C3C(=O)c4c(O)cccc4[C@@](C)(O)[C@H]3C[C@@H]12 [Tetracycline] | 1.5–3 times compared to control | 1–3 cells connected | DNA condensed in one thin filament across the cells | 1.5–3 times compared to control | 1–3 cells connected | DNA condensed in one thin filament spiring the cells | – | – | – | – | – | – | – | – |
